Assay results from patent US7407980B2, “Imidazolinylmethyl aralkylsulfonamides” (Roche Palo Alto LLC, priority 2002, dated 2008).

Target: T1, alpha 1A adrenoceptors (Homo sapiens, UniProt P35348)
T1 construct: expressed in transfected cells; host or cells: CHO-K1 (clone 13)
T1 sequence (P35348 1-466): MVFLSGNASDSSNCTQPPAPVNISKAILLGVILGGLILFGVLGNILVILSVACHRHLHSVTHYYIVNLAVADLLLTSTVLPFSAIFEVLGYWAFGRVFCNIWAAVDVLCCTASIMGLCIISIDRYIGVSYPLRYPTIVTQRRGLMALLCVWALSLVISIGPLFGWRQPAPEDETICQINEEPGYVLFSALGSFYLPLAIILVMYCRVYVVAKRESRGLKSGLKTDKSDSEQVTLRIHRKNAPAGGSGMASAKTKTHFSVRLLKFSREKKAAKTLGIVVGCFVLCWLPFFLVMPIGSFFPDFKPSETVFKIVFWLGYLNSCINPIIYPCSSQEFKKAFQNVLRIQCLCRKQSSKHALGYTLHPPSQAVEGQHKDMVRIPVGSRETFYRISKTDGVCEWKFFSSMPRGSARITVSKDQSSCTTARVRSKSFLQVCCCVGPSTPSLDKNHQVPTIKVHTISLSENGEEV
Assay: Functional assay: fluorescent dye (Fluo-3, FLIPR) determination of intracellular calcium in CHO-K1 cells expressing alpha 1A adrenoceptors (clone 13)
Assay type: cell-based
Settings: for EC50: CHO-K1 cells expressing alpha 1A adrenoceptor (clone 13), agonist, intracellular calcium, FLIPR, read-out: CHO-1A-13 pEC50 (converted); for CHO-1A-13 IA: intrinsic activity: maximum response relative to norepinephrine bitartrate (full agonist), CHO-K1 alpha 1A clone 13
Description: The activity of potential α1A/L activity in vitro was determined by evaluating the potency and relative intrinsic activity (relative to norepinephrine or phenylephrine) of standard and novel compounds using fluorescent dye determination of intracellular calcium concentrations.
This example illustrates a functional assay which can be used to determine α1A/L agonist activity of Compounds of Formula I.
The activity of compounds of this invention in vitro was examined using fluorescent dye determination of intracellular calcium concentrations.
Chinese hamster ovary cells CHO-K1 expressing the alpha 1A adrenoceptors (clone 13) are washed 4 times (approx. 300 μL/well) with fluorometric imaging plate reader (FLIPR) buffer (Hank's buffered saline solution (HBSS), 2 mM CaCl2, 10 mM HEPES, 2.5 mM probenecid, 100 μM ascorbic acid), with a final volume of 150 μL/well. Cells are loaded with 50 μL/well of 8 μM Fluo-3 AM (Molecular Probes, Eugene, Oreg.), for a final concentration of 2 μM Fluo-3 AM. Cells are then incubated for 60 min at 37° C. Following dye loading, cells are washed 4 times (approx. 300 μL/well) with FLIPR buffer with a final volume of 150 μL/well.
Test compound, control compound and reference compound are run in quadruplicate, 8-point curves on each plate with a final assay concentration range of 10^−4 M to 10^−11 M for each compound. All compounds are dissolved in DMSO at 10 mM, and serially diluted in FLIPR buffer.
The assay plate is placed in the FLIPR incubation chamber and a baseline fluorescence measurement (excitation @ 488 nm and emission @ 510-570 nm) is obtained (15 sec interval). An experimental run is then commenced. The reaction is started with the addition of 50 μL/well (at 4× final concentration) of test, control, or reference compound solution from the agonist plate to the assay plate to all 96 wells simultaneously. Fluorescence is measured for 120 sec at 1 sec intervals. Then, a second addition of 5 μM ionomycin (50 μL/well from 5× concentration ionomycin plate) is added to the assay plate. Fluorescence is measured for 30 sec at 1 sec intervals. All experiments are conducted at room temperature.
For each assay plate, responses (increase in peak fluorescence) in each well following addition of agonist (test, control and reference) are determined. These responses may be expressed as raw CFU (Corrected Fluorescence Units), as a % maximum ionomycin response or other unit as determined by the investigator.
For test compound, control compound (Norepinephrine (NE) bitartrate), and reference compound, the concentration producing a 50% increase in control response (EC50) is determined using iterative curve-fitting methods. Excel spreadsheet or Kaleidagraph software are used to fit data to the general logistic function (E=B+Emax·A^nH/A^nH+EC50^nH), where B is the corrected baseline fluorescence units (defined as zero), A is the concentration of agonist added and nH is the Hill slope (constrained to unity). EC50 values and maxima (Emax) for each curve can be estimated objectively using this software.
In addition, the intrinsic activity (a) is determined. Intrinsic activity is defined as the maximum response to test agonist divided by the maximum response to a full agonist acting through the same receptor. For these experiments, the full agonist is defined as Norepinephrine (NE) bitartrate (control).
As used herein an agonist is a compound that elicits a maximal response greater of that of norepinephrine with a pEC50>5.5.

| Structure (SMILES) | EC50 [nM] | CHO-1A-13 IA |
| --- | --- | --- |
| COc1cc(NS(C)(=O)=O)ccc1CC1=NCCN1 [Compound 6, N-[4-(4,5-Dihydro-1H-imidazol-2-ylmethyl)-3-methoxy-phenyl]-methanesulfonamide] | 347 | 0.43 |
| COc1cc(NS(C)(=O)=O)c(OC)cc1CC1=NCCN1 [Compound 22, N-[4-(4,5-Dihydro-1H-imidazol-2-ylmethyl)-2,5-dimethoxy-phenyl]-methanesulfonamide] | 692 | 0.27 |
| COc1cc(CC2=NCCN2)ccc1NS(C)(=O)=O [Compound 2, N-[4-(4,5-Dihydro-1H-imidazol-2-ylmethyl)-2-methoxy-phenyl]-methanesulfonamide] | 170 | 0.92 |

Second part, the molecule after the results:

| EC50 [nM] | CHO-1A-13 IA | Structure (SMILES) |
| --- | --- | --- |
| 661 | 0.16 | CCS(=O)(=O)Nc1ccc(CC2=NCCN2)cc1Cl [Compound 13, Ethanesulfonic acid [2-chloro-4-(4,5-dihydro-1H-imidazol-2-ylmethyl)-phenyl]-amide] |
| 75.9 | 0.81 | COc1cc(CC2=NCCN2)c(Cl)cc1NS(C)(=O)=O [Compound 25, N-[5-Chloro-4-(4,5-dihydro-1H-imidazol-2-ylmethyl)-2-methoxy-phenyl]-methanesulfonamide] |
| 302 | 0.65 | CS(=O)(=O)Nc1ccc(CC2=NCCN2)c2ccoc12 [Compound 8, N-[4-(4,5-Dihydro-1H-imidazol-2-ylmethyl)-benzofuran-7-yl]-methanesulfonamide] |
